In patent US9296704B2, “Substituted pyrimidines as protein kinase inhibitors” (CELGENE AVILOMICS RESEARCH, INC., priority 2007, dated 2016):

Columns and labels:
[1] = system: BTK signaling in Ramos cells; experiment: BTK Ramos cellular assay (PLCγ2 phosphorylation); type: cell-based; details: Homo sapiens; for IC50: Ramos cells, PLCγ2 phosphorylation, read-out: BTK Inhibition
Procedure: Compounds 1-13 and (I-52) were assayed in Ramos human Burkitt lymphoma cells. Ramos cells were grown in suspension in T225 flasks, spun down, resuspended in 50 mls serum-free media and incubated for 1 hour. Compound was added to Ramos cells in serum free media to a final concentration of 1, 0.1, 0.01, or 0.001 μM. Ramos cells were incubated with compound for 1 hour, washed again and resuspended in 100 ul serum-free media. Cells were then stimulated with 1 μg of goat F(ab′)2 Anti-Human IgM and incubated on ice for 10 minutes to activate B cell receptor signaling pathways. After 10 minutes, the cells were washed once with PBS and then lysed on ice with Invitrogen Cell Extraction buffer. 16 μg total protein from lysates was loaded on gels and blots were probed for phosphorylation of the BTK substrate PLCγ2. […] Additional dose response inhibition of BTK signaling with I-13 is depicted in FIG. 9.

EGFR (WT) = biological target: T1, EGFR (WT) (Homo sapiens, UniProt P00533); experiment: Omnia continuous-read kinase assay, EGFR (WT); type: biochemical; details: read-out: EGFR inhibtion
T1 construct: purchased Invitrogen PV3872
T1 sequence (P00533 25-1210): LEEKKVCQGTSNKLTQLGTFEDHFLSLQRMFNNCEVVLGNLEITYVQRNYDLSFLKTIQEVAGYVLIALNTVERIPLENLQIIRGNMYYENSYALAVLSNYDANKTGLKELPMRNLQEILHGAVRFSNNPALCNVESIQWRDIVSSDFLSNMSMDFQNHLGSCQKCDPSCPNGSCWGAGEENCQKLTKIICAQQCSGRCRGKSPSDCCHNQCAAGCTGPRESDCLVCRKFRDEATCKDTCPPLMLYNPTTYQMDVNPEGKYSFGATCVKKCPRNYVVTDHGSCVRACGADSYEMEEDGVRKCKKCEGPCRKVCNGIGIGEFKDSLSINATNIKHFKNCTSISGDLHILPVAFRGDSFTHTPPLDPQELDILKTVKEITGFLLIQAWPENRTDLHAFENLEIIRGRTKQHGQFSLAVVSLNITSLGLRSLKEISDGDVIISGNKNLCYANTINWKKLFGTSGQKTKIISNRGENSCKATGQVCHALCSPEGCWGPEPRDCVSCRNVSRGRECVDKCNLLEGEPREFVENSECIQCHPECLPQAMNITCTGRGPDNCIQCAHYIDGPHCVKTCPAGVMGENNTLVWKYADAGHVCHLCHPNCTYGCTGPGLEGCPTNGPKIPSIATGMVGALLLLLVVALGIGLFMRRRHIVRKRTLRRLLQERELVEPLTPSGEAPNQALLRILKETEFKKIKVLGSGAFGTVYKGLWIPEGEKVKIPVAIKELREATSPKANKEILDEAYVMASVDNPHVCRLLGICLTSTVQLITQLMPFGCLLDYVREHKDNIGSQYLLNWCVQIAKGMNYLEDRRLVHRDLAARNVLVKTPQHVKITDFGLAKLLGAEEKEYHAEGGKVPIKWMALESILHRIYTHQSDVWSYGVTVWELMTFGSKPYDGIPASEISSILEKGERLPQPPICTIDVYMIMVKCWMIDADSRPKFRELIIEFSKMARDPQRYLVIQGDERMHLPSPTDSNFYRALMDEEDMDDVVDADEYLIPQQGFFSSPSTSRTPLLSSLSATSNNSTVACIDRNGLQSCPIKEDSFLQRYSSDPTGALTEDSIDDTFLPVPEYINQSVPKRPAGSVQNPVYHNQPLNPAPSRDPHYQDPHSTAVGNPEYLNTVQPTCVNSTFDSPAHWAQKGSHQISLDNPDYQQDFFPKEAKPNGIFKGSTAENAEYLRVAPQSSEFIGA
From the text: (§1) The protocol below describes continuous-read kinase assays to measure inherent potency of compounds against active forms of EGFR (WT) and EGFR (T790M/L858R) enzymes. The mechanics of the assay platform are best described by the vendor (Invitrogen, Carlsbad, Calif.) on their website at the following URL: http://www.invitrogen.com/content.cfm?pageid=11338 or http://www.invitrogen.com/site/us/en/home/Products-and-Services/Applications/Drug-Discovery/Target-and-Lead-Identification-and-Validation/KinaseBiology/KB-Misc/Biochemical-Assays/Omnia-Kinase-Assays.html.
(§2) Briefly, 10× stocks of EGFR-WT (PV3872) from Invitrogen and EGFR-T790M/L858R (40350) from BPS Bioscience, San Diego, Calif., 1.13×ATP (AS001A) and appropriate Tyr-Sox conjugated peptide substrates (KCZI001) were prepared in 1× kinase reaction buffer consisting of 20 mM Tris, pH 7.5, 5 mM MgCl2, 1 mM EGTA, 5 mM β-glycerophosphate, 5% glycerol (10× stock, KB002A) and 0.2 mM DTT (DS001A). 5 μL of each enzyme were pre-incubated in a Corning (#3574) 384-well, white, non-binding surface microtiter plate (Corning, NY) for 30 min. at 27° C. with a 0.5 μL volume of 50% DMSO and serially diluted compounds prepared in 50% DMSO. Kinase reactions were started with the addition of 45 μL of the ATP/Tyr-Sox peptide substrate mix and monitored every 30-90 seconds for 60 minutes at λex360/λem485 in a Synergy^4 plate reader from BioTek (Winooski, Vt.). At the conclusion of each assay, progress curves from each well were examined for linear reaction kinetics and fit statistics (R^2, 95% confidence interval, absolute sum of squares). Initial velocity (0 minutes to ˜30 minutes) from each reaction was determined from the slope of a plot of relative fluorescence units vs time (minutes) and then plotted against inhibitor concentration to estimate IC50 from log [Inhibitor] vs Response, Variable Slope model in GraphPad Prism from GraphPad Software (San Diego, Calif.).
(§3) The EGFR-WT- and EGFR T790M/L858R-modified optimized reagent conditions are: • [EGFR-WT]=5 nM, [ATP]=[…], [Y12-Sox]=[…]; and [EGFR-T790M/L858R]=3 nM, [ATP]=[…], [Y12-Sox]=[…].

BTK = BTK (Homo sapiens, UniProt Q06187); experiment: Omnia assay for potency against BTK; type: biochemical; details: read-out: BTK Inhibition
BTK, sequence (Q06187 whole entry): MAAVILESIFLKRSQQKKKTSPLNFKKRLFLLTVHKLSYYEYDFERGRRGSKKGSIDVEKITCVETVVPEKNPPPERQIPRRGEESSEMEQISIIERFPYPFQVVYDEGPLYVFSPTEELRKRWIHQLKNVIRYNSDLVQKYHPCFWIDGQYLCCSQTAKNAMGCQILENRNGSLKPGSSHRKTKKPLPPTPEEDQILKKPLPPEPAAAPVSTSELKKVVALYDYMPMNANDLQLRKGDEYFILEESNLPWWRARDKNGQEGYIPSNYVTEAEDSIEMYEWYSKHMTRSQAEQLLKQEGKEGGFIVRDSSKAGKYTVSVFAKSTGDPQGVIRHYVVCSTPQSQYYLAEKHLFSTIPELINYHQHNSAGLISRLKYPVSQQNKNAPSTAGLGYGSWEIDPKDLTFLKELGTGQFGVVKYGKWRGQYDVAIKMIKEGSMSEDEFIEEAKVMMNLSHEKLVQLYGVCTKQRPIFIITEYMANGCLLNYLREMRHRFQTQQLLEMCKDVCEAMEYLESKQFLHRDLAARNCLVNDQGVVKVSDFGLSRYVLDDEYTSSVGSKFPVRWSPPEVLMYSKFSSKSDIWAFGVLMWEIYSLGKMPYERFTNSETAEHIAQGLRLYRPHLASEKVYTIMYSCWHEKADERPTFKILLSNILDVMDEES
From the text: as §1, §2
The Omnia Assay Protocol for potency assessment against BTK is performed in a substantially similar manner as that described in Example 25 above except that the modified BTK-optimized reagent conditions are: • [BTK]=5 nM, [ATP]=[…], [Y5-Sox]=[…] (ATP KMapp ˜[…]).

ITK = biological target: T2, ITK (Homo sapiens, UniProt Q08881); experiment: Omnia assay for potency against ITK; type: biochemical; details: read-out: ITK inhibition
T2 sequence (Q08881 1-620): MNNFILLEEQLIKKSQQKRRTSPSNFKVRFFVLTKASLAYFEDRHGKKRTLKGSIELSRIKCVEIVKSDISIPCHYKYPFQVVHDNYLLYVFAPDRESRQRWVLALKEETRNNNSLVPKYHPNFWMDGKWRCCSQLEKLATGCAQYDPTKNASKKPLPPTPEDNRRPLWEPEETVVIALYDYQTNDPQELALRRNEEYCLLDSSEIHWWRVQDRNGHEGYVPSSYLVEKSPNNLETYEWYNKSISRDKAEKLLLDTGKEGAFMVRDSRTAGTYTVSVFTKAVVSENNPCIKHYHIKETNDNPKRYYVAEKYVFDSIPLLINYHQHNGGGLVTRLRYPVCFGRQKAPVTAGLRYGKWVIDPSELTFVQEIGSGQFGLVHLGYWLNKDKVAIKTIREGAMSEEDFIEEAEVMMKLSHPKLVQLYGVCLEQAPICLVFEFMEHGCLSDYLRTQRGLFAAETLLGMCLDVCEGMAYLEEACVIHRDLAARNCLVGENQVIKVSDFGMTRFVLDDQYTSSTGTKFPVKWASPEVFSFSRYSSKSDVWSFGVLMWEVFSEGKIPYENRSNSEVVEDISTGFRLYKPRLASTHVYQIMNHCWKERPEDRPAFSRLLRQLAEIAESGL
From the text: as §1, §2
This example describes continuous-read kinase assays to measure inherent potency of compound against active forms of ITK enzymes as described in Example 10 above except that the modified ITK-optimized reagent conditions are: • [ITK]=10 nM, [ATP]=25 μM, [Y6-Sox]=10 μM (ATP KMapp=33 μM).

JAK3 = biological target: T3, JAK3 (Homo sapiens, UniProt P52333); experiment: Omnia assay for potency against JAK3; type: biochemical; details: read-out: JAK3 Inhibition
T3 sequence (P52333 1-1124): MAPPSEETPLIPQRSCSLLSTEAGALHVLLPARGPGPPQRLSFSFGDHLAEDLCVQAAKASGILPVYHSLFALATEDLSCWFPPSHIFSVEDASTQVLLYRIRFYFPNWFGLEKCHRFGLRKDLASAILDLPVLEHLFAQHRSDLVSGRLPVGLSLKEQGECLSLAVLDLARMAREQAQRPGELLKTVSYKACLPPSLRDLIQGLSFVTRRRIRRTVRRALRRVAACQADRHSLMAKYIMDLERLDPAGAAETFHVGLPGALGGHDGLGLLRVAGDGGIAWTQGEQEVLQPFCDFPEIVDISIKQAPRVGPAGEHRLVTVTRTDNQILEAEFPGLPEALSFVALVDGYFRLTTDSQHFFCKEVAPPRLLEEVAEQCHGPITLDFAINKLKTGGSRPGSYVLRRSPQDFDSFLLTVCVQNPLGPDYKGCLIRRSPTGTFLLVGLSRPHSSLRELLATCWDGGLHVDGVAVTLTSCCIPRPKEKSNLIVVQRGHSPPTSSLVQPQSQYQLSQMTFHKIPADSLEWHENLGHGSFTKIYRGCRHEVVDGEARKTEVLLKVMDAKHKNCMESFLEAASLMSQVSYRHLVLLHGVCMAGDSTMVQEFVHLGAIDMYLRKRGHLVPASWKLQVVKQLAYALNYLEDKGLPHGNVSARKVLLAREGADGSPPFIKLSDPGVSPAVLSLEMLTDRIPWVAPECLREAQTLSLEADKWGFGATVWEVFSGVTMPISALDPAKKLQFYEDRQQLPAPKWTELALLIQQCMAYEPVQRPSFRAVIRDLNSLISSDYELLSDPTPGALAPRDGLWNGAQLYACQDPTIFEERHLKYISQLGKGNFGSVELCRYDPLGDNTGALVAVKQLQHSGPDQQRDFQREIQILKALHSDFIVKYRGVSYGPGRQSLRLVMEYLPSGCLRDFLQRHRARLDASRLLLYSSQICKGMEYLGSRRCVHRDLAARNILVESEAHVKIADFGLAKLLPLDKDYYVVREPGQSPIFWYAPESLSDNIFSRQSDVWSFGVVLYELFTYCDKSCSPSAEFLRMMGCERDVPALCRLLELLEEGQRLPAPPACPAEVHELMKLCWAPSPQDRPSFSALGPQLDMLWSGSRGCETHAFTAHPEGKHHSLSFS
From the text: as §1, §2
The Omnia Assay Protocol for potency assessment against JAK3 is performed in a substantially similar manner as that described in Example 25 above except that the modified JAK3-optimized reagent conditions are: • [JAK3]=5 nM, [ATP]=5 μM, [Y12-Sox]=5 μM (ATP KMapp ˜[…]).

ErbB1 = ErbB1 (Homo sapiens, UniProt P00533); experiment: Z'-LYTE biochemical assay, ErbB1 kinase inhibition; details: @ 1 μM
ErbB1, sequence (P00533 25-1210): as the sequence (P00533 25-1210) above
Procedure: Compounds of the present invention were assayed as inhibitors of one or more of ErbB1, ErbB2, and/or ErbB4 in a manner substantially similar to the method described by Invitrogen Corp (Invitrogen Corporation, 1600 Faraday Avenue, Carlsbad, Calif., CA; http://www.invitrogen.com/downloads/Z-LYTE_Brochure—1205.pdf) using the Z′-LYTE™ biochemical assay procedure or similar biochemical assay. The Z′-LYTE™ biochemical assay employs a fluorescence-based, coupled-enzyme format and is based on the differential sensitivity of phosphorylated and non-phosphorylated peptides to proteolytic cleavage.

EGFR (T790M/L858R) = biological target: T4, EGFR (T790M/L858R) (Homo sapiens, UniProt P00533, L858R/T790M); experiment: Omnia continuous-read kinase assay, EGFR (T790M/L858R); type: biochemical; details: read-out: EGFR (T790M/L858R) inhibiton
T4 construct: purchased BPS Bioscience 40350
T4 sequence (P00533 25-1210 T790M/L858R): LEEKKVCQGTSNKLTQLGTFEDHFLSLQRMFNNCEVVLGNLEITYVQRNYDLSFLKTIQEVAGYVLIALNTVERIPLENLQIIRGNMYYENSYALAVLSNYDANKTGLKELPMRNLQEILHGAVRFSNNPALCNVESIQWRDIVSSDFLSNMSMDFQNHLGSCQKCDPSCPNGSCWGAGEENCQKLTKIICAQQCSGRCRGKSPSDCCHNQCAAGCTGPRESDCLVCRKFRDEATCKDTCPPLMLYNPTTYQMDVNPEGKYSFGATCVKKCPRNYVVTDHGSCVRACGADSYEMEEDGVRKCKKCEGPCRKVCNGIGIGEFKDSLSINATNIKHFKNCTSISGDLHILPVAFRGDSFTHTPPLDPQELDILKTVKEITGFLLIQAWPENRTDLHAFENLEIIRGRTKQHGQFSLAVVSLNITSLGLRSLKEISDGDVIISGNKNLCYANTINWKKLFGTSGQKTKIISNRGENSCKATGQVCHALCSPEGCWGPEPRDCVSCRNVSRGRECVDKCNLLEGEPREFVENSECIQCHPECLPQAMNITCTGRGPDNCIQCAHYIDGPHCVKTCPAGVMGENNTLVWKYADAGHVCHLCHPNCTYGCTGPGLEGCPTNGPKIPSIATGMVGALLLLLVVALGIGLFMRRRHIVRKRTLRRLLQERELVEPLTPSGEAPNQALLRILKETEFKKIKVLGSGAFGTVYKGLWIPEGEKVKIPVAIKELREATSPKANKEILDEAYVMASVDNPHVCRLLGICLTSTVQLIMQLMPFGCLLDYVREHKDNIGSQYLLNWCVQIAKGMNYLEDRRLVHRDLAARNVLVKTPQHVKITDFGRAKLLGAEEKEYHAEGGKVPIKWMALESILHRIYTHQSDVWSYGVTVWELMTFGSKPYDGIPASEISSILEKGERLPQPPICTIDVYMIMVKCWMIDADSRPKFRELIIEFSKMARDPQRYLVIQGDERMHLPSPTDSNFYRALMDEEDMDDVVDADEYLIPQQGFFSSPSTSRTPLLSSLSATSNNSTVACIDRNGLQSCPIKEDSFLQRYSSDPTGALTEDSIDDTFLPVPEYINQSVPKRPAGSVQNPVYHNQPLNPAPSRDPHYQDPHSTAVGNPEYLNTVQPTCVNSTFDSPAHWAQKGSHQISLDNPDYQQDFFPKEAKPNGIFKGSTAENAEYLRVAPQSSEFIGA
From the text: as §1, §2, §3

IC50 [1]	IC50 (EGFR (WT))	IC50 (BTK)	IC50 (ITK)	IC50 (JAK3)	inhibition at 1 µM (ErbB1)	IC50 (EGFR (T790M/L858R))	Compound	inhibition at 1 µM ([1]; Ramos, at 1 μM, 1 hour)
0.01 to 0.1 µM	≤ 0.01 µM	≤ 0.01 µM	≥ 10 µM				C=CC(=O)Nc1cc(Nc2cc(Oc3ccc(Oc4ccccc4)cc3)ncn2)cc(C(=O)N2CCOCC2)c1 [I-100, N-(3-(morpholine-4-carbonyl)-5-(6-(4-phenoxy)pyrimidin-4-ylamino)phenyl)acrylamide]	
	≤ 0.01 µM	0.1 to 1 µM	≥ 10 µM				COc1ccc(NC(=O)/C=C/CN(C)CCCCNC(=O)OC(C)(C)C)cc1Nc1cc(Nc2ccc(F)c(Cl)c2)ncn1 [I-98]	
	≤ 0.01 µM	≤ 0.01 µM	0.1 to 1 µM				CC=CC(=O)c1cccc(Nc2cc(Nc3ccc(Oc4ccccc4)cc3)ncn2)c1 (mixture of isomers) [I-89, (E,Z)-1-(3-(6-(4-phenoxyphenylamino)pyrimidin-4-ylamino)phenyl)but-2-en-1-one]	
	≤ 0.01 µM	≤ 0.01 µM	0.01 to 0.1 µM				CC#CC(=O)c1cccc(Nc2cc(Nc3ccc(Oc4ccccc4)cc3)ncn2)c1 [I-88, 1-(3-(6-(4-phenoxyphenylamino)pyrimidin-4-ylamino)phenyl)but-2-yn-1-one]	
≤ 0.01 µM							C=CC(=O)Nc1cccc(Nc2cc(Oc3cccc(C)c3)ncn2)n1 [I-65)]	
	≤ 0.01 µM	≤ 0.01 µM		≤ 0.01 µM			CN(C)C/C=C/C(=O)Nc1cccc(Nc2cc(Nc3ccc(F)c(Cl)c3)ncn2)n1 [I-52]	50%
	≤ 0.01 µM	0.1 to 1 µM	1 to 10 µM	≤ 0.01 µM	96%	0.01 to 0.1 µM	C=CC(=O)Nc1cccc(Nc2cc(N3CCc4ccccc43)ncn2)c1 [I-14]	
	≤ 0.01 µM	0.1 to 1 µM	≥ 10 µM	0.1 to 1 µM	96%	0.1 to 1 µM	C=CS(=O)(=O)Nc1cccc(Nc2cc(Oc3cccc(C(F)(F)F)c3)ncn2)c1 [I-10]	
	≤ 0.01 µM	≤ 0.01 µM	0.1 to 1 µM				C=CC(=O)Nc1cc(Nc2cc(Oc3ccc(Oc4ccccc4)cc3)ncn2)ccc1N1CCOCC1 [I-101, N-(2-morpholino-5-(6-(4-phenoxyphenoxy)pyrimidin-4-ylamino)phenyl)acrylamide]	
	≤ 0.01 µM	0.01 to 0.1 µM	1 to 10 µM	0.01 to 0.1 µM	98%	0.01 to 0.1 µM	C=CC(=O)Nc1cccc(Nc2cc(N(C)c3ccccc3)ncn2)c1 [I-15, N-{3-[6-(N-methyl-N-phenylamino)-pyrimidin-4-ylamino]phenyl}-2 propenamide]	
≤ 0.01 µM	≤ 0.01 µM	≤ 0.01 µM					COc1ccc(NC(=O)/C=C/CN(C)CCCCNC(=O)CCCC(=O)NCCCOCCOCCOCCCNC(=O)CCCC[C@@H]2SC[C@@H]3NC(=O)N[C@@H]32)cc1Nc1cc(Nc2ccc(F)c(Cl)c2)ncn1 [I-99, N^1-(4-(((E)-4-(3-(6-(3-chloro-4-fluorophenylamino)pyrimidin-4-ylamino)-4-methoxyphenylamino)-4-oxobut-2-enyl)(methyl)amino)butyl)-N^5-(15-oxo-19-((3aS,4S,6aR)-2-oxohexahydro-1H-thieno[3,4-d]imidazol-4-yl)-4,7,10-trioxa-14-azanonadecyl)glutaramide]	
≤ 0.01 µM							C=CC(=O)Nc1cccc(Nc2cc(Oc3ccc(Oc4ccccc4)cc3)ncn2)n1 [I-66)]	
	≤ 0.01 µM	≤ 0.01 µM	0.1 to 1 µM				C=CC(=O)Nc1cccc(Nc2cc(Oc3cccc(OC)c3)ncn2)n1 [I-90, N-(6-(6-(3-methoxyphenoxy)pyrimidin-4-ylamino)pyridine-2-yl)acrylamide]	
